Calls of active or inactive are those of the source. The rule behind the calls is not given here.
Columns and labels:
Salmonella typhimurium [1] = test: Antimicrobial activity against Salmonella Typhimurium ATCC 14028 assessed as inhibition of planktonic growth at 40 uM at 25 degC after 24 hrs; type: functional, organism-based; settings: Salmonella enterica subsp. enterica serovar Typhimurium
Salmonella typhimurium [2] = test: Antimicrobial activity against Salmonella Typhimurium ATCC 14028 assessed as inhibition of planktonic growth at 25 uM at 37 degC after 24 hrs; type: functional, organism-based; settings: Salmonella enterica subsp. enterica serovar Typhimurium
Pseudomonas aeruginosa [3] = test: Antibiofilm activity in Pseudomonas aeruginosa assessed as inhibition of biofilm formation at 25 degC after 24 hrs; type: functional, organism-based
Salmonella typhimurium [4] = test: Antimicrobial activity against Salmonella Typhimurium ATCC 14028 assessed as inhibition of planktonic growth at 100 uM at 37 degC after 24 hrs; type: functional, organism-based; settings: Salmonella enterica subsp. enterica serovar Typhimurium
Pseudomonas aeruginosa [5] = test: Antimicrobial activity against Pseudomonas aeruginosa assessed as inhibition of planktonic growth at 10 uM at 25 degC after 24 hrs; type: functional, organism-based
Pseudomonas aeruginosa [6] = test: Antimicrobial activity against Pseudomonas aeruginosa assessed as inhibition of planktonic growth at 40 uM at 25 degC after 24 hrs; type: functional, organism-based
Salmonella typhimurium [7] = test: Antimicrobial activity against Salmonella Typhimurium ATCC 14028 assessed as inhibition of planktonic growth at 400 uM at 25 degC after 24 hrs; type: functional, organism-based; settings: Salmonella enterica subsp. enterica serovar Typhimurium
Salmonella typhimurium [8] = test: Antibiofilm activity in Salmonella Typhimurium ATCC 14028 assessed as inhibition of biofilm formation at 25 degC after 24 hrs; type: functional, organism-based, Salmonella enterica subsp. enterica serovar Typhimurium; settings: Salmonella enterica, ATCC 14028, 24 h
Salmonella typhimurium [9] = test: Antibiofilm activity in Salmonella Typhimurium ATCC 14028 assessed as inhibition of biofilm formation at 37 degC after 24 hrs; type: functional, organism-based, Salmonella enterica subsp. enterica serovar Typhimurium; settings: Salmonella enterica, ATCC 14028, 24 h
Salmonella typhimurium [10] = test: Antimicrobial activity against Salmonella Typhimurium ATCC 14028 assessed as inhibition of planktonic growth at 50 uM at 37 degC after 24 hrs; type: functional, organism-based; settings: Salmonella enterica subsp. enterica serovar Typhimurium
Pseudomonas aeruginosa [11] = test: Antimicrobial activity against Pseudomonas aeruginosa assessed as inhibition of planktonic growth at 20 uM at 37 degC after 24 hrs; type: functional, organism-based
Salmonella typhimurium [12] = test: Antimicrobial activity against Salmonella Typhimurium ATCC 14028 assessed as inhibition of planktonic growth at 150 uM at 37 degC after 24 hrs; type: functional, organism-based; settings: Salmonella enterica subsp. enterica serovar Typhimurium
Pseudomonas aeruginosa [13] = test: Antimicrobial activity against Pseudomonas aeruginosa assessed as inhibition of planktonic growth at 40 uM at 37 degC after 24 hrs; type: functional, organism-based
Pseudomonas aeruginosa [14] = test: Antibiofilm activity in Pseudomonas aeruginosa assessed as inhibition of biofilm formation at 37 degC after 24 hrs; type: functional, organism-based
Salmonella typhimurium [15] = test: Antimicrobial activity against Salmonella Typhimurium ATCC 14028 assessed as inhibition of planktonic growth at 4 uM at 25 degC after 24 hrs; type: functional, organism-based; settings: Salmonella enterica subsp. enterica serovar Typhimurium
Pseudomonas aeruginosa [16] = test: Antimicrobial activity against Pseudomonas aeruginosa assessed as inhibition of planktonic growth at 5 uM at 25 degC after 24 hrs; type: functional, organism-based
Pseudomonas aeruginosa [17] = test: Antimicrobial activity against Pseudomonas aeruginosa assessed as inhibition of planktonic growth at 100 uM at 37 degC after 24 hrs; type: functional, organism-based
Salmonella typhimurium [18] = test: Antimicrobial activity against Salmonella Typhimurium ATCC 14028 assessed as inhibition of planktonic growth at 200 uM at 25 degC after 24 hrs; type: functional, organism-based; settings: Salmonella enterica subsp. enterica serovar Typhimurium
Salmonella typhimurium [19] = test: Antimicrobial activity against Salmonella Typhimurium ATCC 14028 assessed as inhibition of planktonic growth at 10 uM at 25 degC after 24 hrs; type: functional, organism-based; settings: Salmonella enterica subsp. enterica serovar Typhimurium
Salmonella typhimurium [20] = test: Antimicrobial activity against Salmonella Typhimurium ATCC 14028 assessed as inhibition of planktonic growth at 400 uM at 37 degC after 24 hrs; type: functional, organism-based; settings: Salmonella enterica subsp. enterica serovar Typhimurium
Pseudomonas aeruginosa [21] = test: Antimicrobial activity against Pseudomonas aeruginosa assessed as inhibition of planktonic growth at 800 uM at 37 degC after 24 hrs; type: functional, organism-based
Pseudomonas aeruginosa [22] = test: Antimicrobial activity against Pseudomonas aeruginosa assessed as inhibition of planktonic growth at 400 uM at 37 degC after 24 hrs; type: functional, organism-based
Salmonella typhimurium [23] = test: Antimicrobial activity against Salmonella Typhimurium ATCC 14028 assessed as inhibition of planktonic growth at 20 uM at 25 degC after 24 hrs; type: functional, organism-based; settings: Salmonella enterica subsp. enterica serovar Typhimurium
Salmonella typhimurium [24] = test: Antimicrobial activity against Salmonella Typhimurium ATCC 14028 assessed as inhibition of planktonic growth at 250 uM at 37 degC after 24 hrs; type: functional, organism-based; settings: Salmonella enterica subsp. enterica serovar Typhimurium
Pseudomonas aeruginosa [25] = test: Antimicrobial activity against Pseudomonas aeruginosa assessed as inhibition of planktonic growth at 100 uM at 25 degC after 24 hrs; type: functional, organism-based
Salmonella typhimurium [26] = test: Antimicrobial activity against Salmonella Typhimurium ATCC 14028 assessed as inhibition of planktonic growth at 150 uM at 25 degC after 24 hrs; type: functional, organism-based; settings: Salmonella enterica subsp. enterica serovar Typhimurium
Salmonella typhimurium [27] = test: Antimicrobial activity against Salmonella Typhimurium ATCC 14028 assessed as inhibition of planktonic growth at 25 uM at 25 degC after 24 hrs; type: functional, organism-based; settings: Salmonella enterica subsp. enterica serovar Typhimurium
Pseudomonas aeruginosa [28] = test: Antimicrobial activity against Pseudomonas aeruginosa assessed as inhibition of planktonic growth at 50 uM at 25 degC after 24 hrs; type: functional, organism-based

Structure (SMILES) | IC50 (Pseudomonas aeruginosa [3]) [µM] | IC50 (Salmonella typhimurium [8]) [µM] | IC50 (Salmonella typhimurium [9]) [µM] | IC50 (Pseudomonas aeruginosa [14]) [µM] | inhibition (Salmonella typhimurium [1]) | inhibition (Salmonella typhimurium [4]) | inhibition (Pseudomonas aeruginosa [5]) | inhibition (Pseudomonas aeruginosa [6]) | inhibition (Salmonella typhimurium [7]) | inhibition (Pseudomonas aeruginosa [11]) | inhibition (Salmonella typhimurium [12]) | inhibition (Pseudomonas aeruginosa [13]) | inhibition (Salmonella typhimurium [15]) | inhibition (Pseudomonas aeruginosa [17]) | inhibition (Salmonella typhimurium [19]) | inhibition (Salmonella typhimurium [20]) | inhibition (Pseudomonas aeruginosa [25]) | also measured
Nc1nc(-c2ccc(-c3ccccc3)cc2)c[nH]1 | 8.6 | 17.3 | 349 | 365 | Active | – | inactive | inactive | – | – | – | – | – | – | inactive | Active | – | inhibition (Pseudomonas aeruginosa [21]): Active; inhibition (Pseudomonas aeruginosa [22]): Active; inhibition (Salmonella typhimurium [23]): Active
Nc1ncc(-c2ccccc2)[nH]1 | 72.6 | 130 | 146 | 22.7 | inactive | inactive | – | – | Active | inactive | inactive | inactive | inactive | inactive | – | inactive | inactive | inhibition (Salmonella typhimurium [24]): inactive; inhibition (Salmonella typhimurium [26]): inactive
Nc1ncc(-c2ccc([N+](=O)[O-])cc2)[nH]1 | 34.5 | 17.6 | 396 | 94 | Active | – | – | – | Active | inactive | – | inactive | – | inactive | inactive | Active | Active | inhibition (Salmonella typhimurium [27]): inactive; inhibition (Pseudomonas aeruginosa [28]): inactive

Now from value to molecule, other results behind:

IC50 (Pseudomonas aeruginosa [3]) [µM] | IC50 (Salmonella typhimurium [8]) [µM] | IC50 (Salmonella typhimurium [9]) [µM] | IC50 (Pseudomonas aeruginosa [14]) [µM] | Structure (SMILES) | inhibition (Salmonella typhimurium [1]) | inhibition (Salmonella typhimurium [4]) | inhibition (Pseudomonas aeruginosa [5]) | inhibition (Pseudomonas aeruginosa [6]) | inhibition (Salmonella typhimurium [7]) | inhibition (Pseudomonas aeruginosa [11]) | inhibition (Salmonella typhimurium [12]) | inhibition (Pseudomonas aeruginosa [13]) | inhibition (Salmonella typhimurium [15]) | inhibition (Pseudomonas aeruginosa [17]) | inhibition (Salmonella typhimurium [19]) | inhibition (Salmonella typhimurium [20]) | inhibition (Pseudomonas aeruginosa [25]) | also measured
3.2 | 47.9 | 54.3 | 51.3 | Nc1ncc(-c2ccc(Br)cc2)[nH]1 | inactive | inactive | inactive | Active | Active | inactive | inactive | inactive | inactive | Active | – | – | – | inhibition (Salmonella typhimurium [2]): inactive; inhibition (Salmonella typhimurium [10]): inactive; inhibition (Pseudomonas aeruginosa [16]): inactive
15 | 84.4 | 238 | 47.6 | Nc1ncc(-c2ccc(F)cc2)[nH]1 | Active | – | inactive | inactive | – | inactive | – | inactive | inactive | inactive | – | – | – | inhibition (Salmonella typhimurium [18]): Active

From ChEMBL document CHEMBL1649413, “Structure-activity relationship of 4(5)-aryl-2-amino-1H-imidazoles, N1-substituted 2-aminoimidazoles and imidazo[1,2-a]pyrimidinium salts as inhibitors of biofilm formation by Salmonella typhimurium and Pseudomonas aeruginosa” (J Med Chem, 2011)
